This passage reports EC50 results from patent US9284288B2, “1-(p-tolyl) cyclopropyl substituted bridged spiro[2.4]heptane derivatives as ALX receptor agonists” (Actelion Pharmaceuticals Ltd., priority 2012, dated 2016).

This assay deals with T1, recombinant human ALX receptor (Homo sapiens, UniProt P25090).
T1 construct: expressed in transfected cells; host or cells: HEK293
T1 sequence (P25090 1-351): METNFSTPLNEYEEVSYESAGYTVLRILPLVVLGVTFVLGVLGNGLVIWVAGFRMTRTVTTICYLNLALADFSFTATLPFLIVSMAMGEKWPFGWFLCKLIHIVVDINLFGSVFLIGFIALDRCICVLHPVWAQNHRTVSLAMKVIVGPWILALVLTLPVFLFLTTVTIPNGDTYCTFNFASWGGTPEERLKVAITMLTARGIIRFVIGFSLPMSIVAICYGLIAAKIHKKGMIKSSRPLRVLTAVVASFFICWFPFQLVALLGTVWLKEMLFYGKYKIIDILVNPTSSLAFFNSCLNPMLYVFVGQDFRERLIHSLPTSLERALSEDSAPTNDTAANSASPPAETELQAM
As to the kind of experiment: Intracellular calcium measurements (FLIPR), ALX receptor agonistic activity. The class given is cell-based. To be noted: HEK293-hALXR-Gα16 cells; normalized to WKYMVm 10 nM; read-out: EC50 (agonistic activity with respect to the ALX receptor). The protocol: The ALX receptor agonistic activity of the compounds of formula (I) is determined in accordance with the following experimental method.
Cells expressing recombinant human ALX receptor and the G-protein Gα16 (HEK293-hALXR-Gα16) were grown to 80% confluency in Growing Medium (GM). Cells were detached from culture dishes with a cell dissociation buffer (Invitrogen, 13151-014), and collected by centrifugation at 1′000 rpm at rt for 5 min in Assay Buffer (AB) (equal parts of Hank's BSS (Gibco, 14065-049) and DMEM without Phenol Red (Gibco, 11880-028)). After 60 min incubation at 37° C. under 5% CO2 in AB supplemented with 1 μM Fluo-4 (AM) (Invitrogen, F14202) and 20 mM HEPES (Gibco, 15630-056), the cells were washed and resuspended in AB. They were then seeded onto 384-well FLIPR assay plates (Greiner, 781091) at 50,000 cells in 70 μl per well and sedimented by centrifugation at 1,000 rpm for 1 min. Stock solutions of test compounds were made up at a concentration of 10 mM in DMSO, and serially diluted in AB to concentrations required for activation dose response curves. WKYMVm (Phoenix Peptides) was used as a reference agonist. […] Changes in fluorescence were monitored before and after the addition of test compounds at lex=488 nm and lem=540 nm. […]
For orientation: A change in cytosolic calcium serves as a functional read-out for many receptors and channels.

As a reminder, the EC50 is the concentration needed to bring the measured effect to its halfway point. Regarding `Cc1ccc(C2(NC(=O)C3C(C(=O)NCCCCN4CCCC4)C4CCC3C43CC3)CC2)cc1` [Example 1, (5R)-N^5-(1-(p-tolyl)cyclopropyl)-(6R)-N^6-(4-(pyrrolidino)butyl)-(4S,7R)-[4,7-ethylene-spiro[2.4]heptane]-5,6-dicarboxamide], the concentration giving a half-maximal response (EC50) worked out at 4 nM.
